Source: PMC4461206 (Acta Crystallographica Section D: Biological Crystallography, 2015)

Assays:
[1] = biological target: T1, AcdDPN7 (3-sulfinopropionyl-coenzyme A desulfinase) (Advenella mimigardefordensis, UniProt K4L7X3); experiment: DTNB sulfite-release assay, […] nm; type: biochemical; details: 50 mM Tris-HCl pH 7.4, 30 C, 0.2 mM DTNB, 0.1 mM 3SP-CoA, with or without O2
T1 construct: gene acd; His6-tagged, pET-23a::acdDPN7, E. coli BL21(DE3) pLysS; homotetramer 150-200 kDa, one FAD per subunit; residues 2-392 superimposed in the structure

[2] = biological target: T1, AcdDPN7 (3-sulfinopropionyl-coenzyme A desulfinase); experiment: X-ray crystal structure, […] A; type: binding; details: co-crystallized and soaked with succinyl-CoA, which was hydrolysed; only CoA seen in the active site (monomers A, B, D, E, F), occupancy 0.43-0.59; pH 6.5
[3] = biological target: T1, AcdDPN7 (3-sulfinopropionyl-coenzyme A desulfinase); experiment: X-ray crystal structure, […] A; type: binding; details: noncovalent, one per subunit, site shared by two monomers; pH 6.5
[4] = biological target: the molecule itself; experiment: crystal structure; apo enzyme at 1.89 Å (two monomers in the asymmetric unit) and complex with CoA at 2.30 Å (six monomers, three dimers); 0.1 M Bis-tris pH 6.5, PEG 3350; 100 K
[5] = biological target: the molecule itself; experiment: SEC; wild-type Acd_(DPN7) and Acd_(DPN7_R84K) run side by side; conditions not told for this run

With `CC(C)(COP(=O)(O)OP(=O)(O)OC[C@H]1O[C@@H](n2cnc3c(N)ncnc32)[C@H](O)[C@@H]1OP(=O)(O)O)[C@@H](O)C(=O)NCCC(=O)NCCSC(=O)CCS(=O)O` [3SP-CoA] the “DTNB sulfite-release assay, 412 nm” value [1] was “AcdDPN7 showed no significant difference in reaction velocity in the presence or absence of O2”.

For `CC(C)(COP(=O)(O)OP(=O)(O)OC[C@H]1O[C@@H](n2cnc3c(N)ncnc32)[C@H](O)[C@@H]1OP(=O)(O)O)[C@@H](O)C(=O)NCCC(=O)NCCS` [CoA], the “X-ray crystal structure, 2.30 A” value [2] was “In the active sites of AcdDPN7 monomers A, B, D, E and F only the CoA group”.

`Cc1cc2nc3c(=O)[nH]c(=O)nc-3n(C[C@H](O)[C@H](O)[C@H](O)COP(=O)(O)OP(=O)(O)OC[C@H]3O[C@@H](n4cnc5c(N)ncnc54)[C@H](O)[C@@H]3O)c2cc1C` [FAD] was tested, and the “X-ray crystal structure, 1.89 A” value [3] was “AcdDPN7 is a tetramer and each monomer has one FAD noncovalently bound to the polypeptide”.

B1: 3-Sulfinopropionyl-coenzyme A (3SP-CoA) desulfinase from Advenella mimigardefordensis DPN7T (enzyme)
chain: MYELTPEQRTLQTQARELAQSVFASTAVQTDLTEQYPWDNVAQLRDAGFMGMMLPTSVGGRGLSTLDTVIVIEEMAKACATMGRITVDSNLGAIGAITKYGSEEQIKLAADLVLAGDKPAICISEPNAGSAASEMTTRADKNGDHYILNGEKYWITGGGVSKLHLIFARVFDDGVEQGIGAFITVLDDHGPEGLKVGRRLYAMGVRGIPETHLEFHDLKIHKSMMITFPDGLKRGFAALMSAYNAQRVGAGAVALGIAQCAFEEGVAYLKRREQFGRPLAEFQGLQWMVADMSVQLEAARLMLRSAAVSGETFPDINKAAQAKIFAAETANKVTNDALQFFGSSGYGRHNPMERHVRDARMFTIAGGTAQILRTQVASKILDMKLPQTRDGYLKAAQNSKR
In the case of B1, the “stoichiometry N” value [4] is reported as 4.

B2: Acd_(DPN7_R84K) (enzyme)
chain: MYELTPEQRTLQTQARELAQSVFASTAVQTDLTEQYPWDNVAQLRDAGFMGMMLPTSVGGRGLSTLDTVIVIEEMAKACATMGKITVDSNLGAIGAITKYGSEEQIKLAADLVLAGDKPAICISEPNAGSAASEMTTRADKNGDHYILNGEKYWITGGGVSKLHLIFARVFDDGVEQGIGAFITVLDDHGPEGLKVGRRLYAMGVRGIPETHLEFHDLKIHKSMMITFPDGLKRGFAALMSAYNAQRVGAGAVALGIAQCAFEEGVAYLKRREQFGRPLAEFQGLQWMVADMSVQLEAARLMLRSAAVSGETFPDINKAAQAKIFAAETANKVTNDALQFFGSSGYGRHNPMERHVRDARMFTIAGGTAQILRTQVASKILDMKLPQTRDGYLKAAQNSKR
In the case of B2, the “stoichiometry N” value [5] is reported as 4.
